From patent US8304443B2, “Indazole derivatives” (Asahi Kasei Pharma Corporation, priority 2008, dated 2012)
pEC50: −log10 of the molar value. Values after ≈ are worked out from the molar mass of the structure shown.

Experiments:
[1] = Test example 10: saturation solubility in pure water; type: physicochemical; conditions: thermodynamic from solid, room temperature, shaken 1 hour
Experimental: Test compound is prepared to saturation state in pure water. The resulting solution is shaken at room temperature for 1 hour. To a filter tube, the entire solution obtained after the shaking is transferred and is subjected to centrifugal filtration at room temperature. The filtrate is analyzed by HPLC, and by using a calibration curve, saturation solubility of the test compound is obtained from the peak area value.
Standard solution is prepared by precisely weighing each test compound and fully dissolving it in pure water. Calibration curve is established by having the concentration of the standard solution as a horizontal axis and the HPLC area value at the corresponding concentration as a vertical axis.
(§1) As a separation column, YMC-Pack C18 (4.6 mm×150 mm, manufactured by YMC) is used. Detection is made at UV-254 nm and the temperature inside the column is 40° C. Condition for elution is as follows; with flow rate of 1 ml/minute, solution A as a solvent=water [comprising 0.1% (v/v) acetic acid] and solution B=acetonitrile are used, and from minute 0 to minute 20, 5 to 98% (v/v) linear gradient of solution B is applied, followed by elution with 98% of solution B until minute 25 and elution with 5% of solution B from minute 25.01 to minute 35.

[2] = biological target: T1, human α1A adrenergic receptor (Homo sapiens, UniProt P35348); assay: Test example 4: human α1A adrenergic receptor agonist activity (Ca flux, Fura-2); type: cell-based; conditions: for Emax: Table 4, Test example 4, maximum response to norephinephrine taken as 100%, read-out: α1A receptor I.A.
T1 construct: expressed in transfected cells; host or cells: HEK293 cells, pcDNA3.1(−), geneticin-selected
T1 sequence (P35348 1-466): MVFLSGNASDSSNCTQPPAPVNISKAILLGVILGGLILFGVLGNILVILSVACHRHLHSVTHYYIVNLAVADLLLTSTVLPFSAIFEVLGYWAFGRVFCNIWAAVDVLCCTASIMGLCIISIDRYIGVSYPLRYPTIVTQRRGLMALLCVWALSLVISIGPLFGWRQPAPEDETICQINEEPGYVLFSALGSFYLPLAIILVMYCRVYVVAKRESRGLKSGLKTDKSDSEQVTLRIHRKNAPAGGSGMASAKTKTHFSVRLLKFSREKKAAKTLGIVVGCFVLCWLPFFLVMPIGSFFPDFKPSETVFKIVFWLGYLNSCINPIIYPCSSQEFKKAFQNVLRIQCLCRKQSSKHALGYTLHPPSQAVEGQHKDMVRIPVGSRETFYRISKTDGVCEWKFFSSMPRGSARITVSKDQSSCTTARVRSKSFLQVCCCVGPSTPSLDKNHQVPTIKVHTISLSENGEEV
Experimental: Human α1A adrenergic receptor agonist activity is determined by using HEK293 cells transfected with pcDNA3.1(−) (Invitrogen) to which human α1A gene has been inserted. These cells are cultured in a DMEM medium containing 10% fetal bovine serum, 400 μg/mL geneticin (Gibco BRL), 100 U/ml penicillin and 100 μg/ml streptomycin. […] After carrying out the loading for 30 minutes in a CO2 incubator, excess Fura-2AM is removed by washing the cells twice with the assay buffer. The cells obtained after the centrifuge is prepared to 5×10^6 cells/ml by using the assay buffer, and aliquoted into a 96-well UV plate (manufactured by Corning Inc.) to give a cell plate (80 μl/well). […] After the measurement for about 30 seconds, 20 μl of the test sample from the sample plate is added to the cell plate and the measurement is continued for another 270 seconds. Ca flux caused by the test compound is obtained from the peak height difference between the maximum value of fluorescence intensity ratio at 340 nm and 380 nm after the addition of the test compound and the fluorescence intensity ratio before the addition of the test compound. Maximum response to norephinephrine as a positive control is taken as 100%, and the maximum response ratio of each test compound is obtained as Intrinsic Activity [I.A. (%)].

[3] = Test example 11: solubility test in hydrochloric acid buffer solution having pH 1.2; type: physicochemical; conditions: 37 °C, pH 1.2, simulated gastric fluid, thermodynamic from solid, pH 1.2, 37° C., prepared at 1000 μg/mL
Experimental: 500 μg of the test compound is precisely weighed, and then added with hydrochloric acid buffer solution having pH 1.2 until the concentration of 1000 μg/mL is obtained. The […] is shaken at 37° C. for 1 hour. To a filter tube, the entire solution obtained after the shaking is transferred and is subjected to centrifugal filtration at room temperature. The filtrate is analyzed by HPLC, and by using a calibration curve, saturation solubility of the test compound is obtained from the peak area value.
Standard solution is prepared by precisely weighing 500 μg of the test compound and dissolving it DMSO to obtain the concentration of 1 mg/mL.
as §1

solubility at 1 h [1] [mg/mL] | pEC50 [2] | Emax [2] [%] | solubility at 1 h [3] [mg/mL] | SMILES
55 (≈ 128 mM) | 5.78 | 20 | 0.982 (≈ 2.28 mM) | CS(=O)(=O)Nc1cccc([C@@H](O)CNCCOc2ccc3c(C4CC4)n[nH]c3c2)c1 [Example 1, (R)—N-(3-(1-Hydroxy-2-(2-(3-cyclopropylindazol-6-yloxy)ethylamino)ethyl)phenyl)methanesulfonamide]
53 (≈ 119 mM) | – | 10 | > 1 | CS(=O)(=O)Nc1cccc([C@@H](O)CNCCOc2ccc3c(C4CCC4)n[nH]c3c2)c1 [Example 2, (R)—N-(3-(1-Hydroxy-2-(2-(3-cyclobutylindazol-6-yloxy)ethylamino)ethyl)phenyl)methanesulfonamide]
